Laboratory results: EP1531819B1, “USE OF I kappa B KINASE INHIBITORS FOR THE TREATMENT OF PAIN” (Sanofi-Aventis Deutschland GmbH, priority 2002, dated 2004)

Key:
[1] = system: Kaolin/Carrageenan induzierte Kniegelenksentzündung bei der Ratte; assay: Model 2: kaolin/carrageenan-induced knee joint inflammation, responses of spinal neurons to pressure on the knee; format: in vivo
Description: Modell: Zymosan-induzierte Pfotenentzündung bei der Ratte; Parameter: Pfotenwegziehzeit oder Pfotenwegziehschwelle bei thermischer oder mechanischer Stimulation der Hinterpfote. • 2. Modell: Kaolin/Carrageenan induzierte Kniegelenksentzündung bei der Ratte; Parameter: Reaktion spinaler Neurone bei Druckreizung des Knies.
Versuchsdurchführung: Bei Ratten wurde in Trapanal-Narkose der Wirbelkanal eröffnet und Rückenmarksneurone, die "Schmerzimpulse" aus dem Kniegelenk verarbeiteten, identifiziert. Nach Identifizierung wurde eine Langzeitableitung durchgeführt, in der die Aktivität der Nervenzelle vor und während der Entwicklung einer akuten Entzündung im Kniegelenk registriert wurde. Dazu wurden in einer Kontrollperiode vor Induktion der Entzündung und nach Induktion der Entzündung für mehrere Stunden die Antworten auf nicht noxische und noxische Reizung am Kniegelenk gemessen.
Die akute Entzündung wurde durch die intraartikuläre Injektion einer Kaolin und Carrageenan Suspension (etwa 150 µl) induziert. In Kontrollexperimenten wurde nur das Vehikel auf die Rückenmarksoberfläche aufgebracht, um die Entwicklung der Übererregbarkeit unter Kontrollbedingungen darzustellen. In der Regel fand diese Entwicklung der Übererregbarkeit innerhalb von 2 bis 4 Stunden statt, und sie äußerte sich in einer starken Zunahme der Antworten auf nicht noxische und noxische Reizung des Kniegelenks (Tab. 3). […] Dann wurden die Antworten der Zelle auf nichtnoxische und noxische Reizung wie in den Kontrollexperimenten weiter verfolgt.

[2] = system: Zymosan-induzierte Pfotenentzündung bei der Ratte; assay: Model 1a: zymosan-induced paw inflammation, paw withdrawal latency on thermal stimulation (Hargreaves Test); format: in vivo
[3] = system: Zymosan-induzierte Pfotenentzündung bei der Ratte; assay: Model 1b: zymosan-induced paw inflammation, paw withdrawal threshold on mechanical stimulation (von Frey Test); format: in vivo
[4] = system: Zymosan-induzierte Pfotenentzündung bei der Maus; assay: Model 3: zymosan-induced paw inflammation, paw withdrawal latency on thermal stimulation (Hargreaves Test), AUC; format: in vivo; settings: for Statistischer Unterschied gegenüber Vehikel: thermische Hyperalgesie AUC; for AUC Mittelwert [Maß für Hyperalgesie]: thermische Hyperalgesie
Experimental: Parameter: Pfotenwegziehzeit bei thermischer Stimulation der Hinterpfote. Versuchsdurchführung: In Kurzzeitnarkose mit Isofluran wurde dem Versuchstier 25 μl einer Suspension, die 50 mg/ml Zymosan enthielt, in die rechte Hinterpfote injiziert. Dann wurde die […] quantitativ wie folgt bestimmt: Bestimmung der Pfotenwegziehzeit bei thermischer Stimulation (Hargreaves Test; s.o.). Das Versuchstier wurde in […] Versuchstier nach der Erkundungsphase (etwa 5 min) nicht mehr bewegte, wurde […] zu stimulierenden Hinterpfote positioniert und […]. Die […] ab, so dass die Hauttemperatur […] linear […] Pfote […] ab. Die Pfotentemperatur zum Zeitpunkt des Wegziehens ist für das Tier gerade eben unangenehm, […] von thermischer Schmerzschwelle. Kurz vor Zymosan-Injektion und für 7 bis 14 Tage nach Injektion wurde […] an der rechten und linken Hinterpfote bestimmt. Anschließend wurde […] Integral der Fläche, die aus […] und […] Pfote gebildet wurde, bestimmt (AUC, area between the curves, s. Tabellen 5 und 6). Je größer dieser Wert ist, umso […], und je kleiner der Wert bei Tieren, die die Substanz erhalten, desto stärker ist der Therapieerfolg. In einer 7-Tage Studie induzierte die Zymosan Injektion in […], Tab. 5). In den anderen Gruppen wurde die Substanzgabe einen Tag nach Zymosan Injektion, […] schon […]. […] Die […] Studie (7 Tage) ergab, dass die AUC unter Substanzgabe dosisabhängig abnahm. […] In einer parallel […] von Tieren wurde Paracetamol in einer sehr hohen Dosis ebenfalls zweimal am Tag verabreicht. […] Paracetamol (Tab. 5). […] […] Zymosan Injektion und Dosierschema […] zuvor beschriebenen Studie. Einziger Unterschied war, dass die weitere Studie über 14 Tage lief.

[5] = system: Zymosan-induzierte Pfotenentzündung bei der Maus; assay: Model 4: zymosan-induced paw inflammation, spontaneous running wheel performance, AUC; format: in vivo, C57/B6 Mäuse; settings: for AUC Mittelwert (Laufradaktivität): 7 days after Zymosan; for Statistischer Unterschied gegenüber Vehikel: Laufradaktivität AUC
Description: Das Versuchstier hat in seinem Haltungskäfig Zugang zu einem Laufrad, dessen Umdrehungen elektronisch registriert werden. Die C57/B6 Mäuse benutzen in den Nachtstunden freiwillig das Laufrad und legen im Mittel nach einer einwöchigen Gewöhnungsphase 4100 Meter/Nacht zurück. Nach Zymosan Injektion ist die nächtliche Laufstrecke verkürzt. Diese Abnahme der Laufleistung gilt als Parameter für entzündungsschmerzbedingte Funktionseinschränkung. Versuchsdurchführung: Die Laufstrecke/24 Std. wurde nach einer Eingewöhnungsphase eine Woche lang zur Bestimmung der Baseline gemessen. Dann wurde in Kurzzeitnarkose mit Isofluran dem Versuchstier 25 µl einer Suspension, die […] Zymosan enthielt, in die rechte Hinterpfote injiziert. Anschließend wurde Laufstrecke/24 Std. während der nächsten sieben Tage ermittelt. In der Auswertung wurde die Fläche unter der Kurve der Laufstreckenwerte bestimmt (AUC, Tab. 7): je kleiner die AUC, desto geringer die Laufleistung in der Woche nach Zymosan Injektion. […] Die Substanzgabe wurde am Tag 1 nach Zymosan Injektion begonnen.

[6] = etwa 30 µl of 10 µM Lösung on the spinal cord, 30-60 min nach K/C-Injektion
[7] = etwa 30 µl of 10 µM Lösung on the spinal cord, 60-120 min nach K/C-Injektion
[8] = etwa 30 µl of 10 µM Lösung on the spinal cord, 120-180 min nach K/C-Injektion
[9] = etwa 30 µl of 10 µM Lösung on the spinal cord, 180-240 min nach K/C-Injektion
[10] = etwa 30 µl of 10 µM Lösung on the spinal cord, Baseline
[11] = je 30 mg/kg i.p. (x3), 0,5 h nach Zymosan-Injektion
[12] = je 30 mg/kg i.p. (x3), 1 h nach Zymosan-Injektion
[13] = je 30 mg/kg i.p. (x3), 2 h nach Zymosan-Injektion
[14] = je 30 mg/kg i.p. (x3), 3 h nach Zymosan-Injektion
[15] = je 30 mg/kg i.p. (x3), 4 h nach Zymosan-Injektion
[16] = je 30 mg/kg i.p. (x3), 5 h nach Zymosan-Injektion
[17] = je 30 mg/kg i.p. (x3), 6 h nach Zymosan-Injektion
[18] = je 30 mg/kg i.p. (x3), 7 h nach Zymosan-Injektion
[19] = je 30 mg/kg i.p. (x3), 24 h nach Zymosan-Injektion
[20] = je 30 mg/kg i.p. (x3), Baseline -0,5 h
[21] = 7 days, 2.8 mg/kg oral twice daily
[22] = 7 days, 25 mg/kg oral twice daily
[23] = 7 days, 75 mg/kg oral twice daily

Structure (SMILES): CNc1nccc(-c2cc3cc(C(=O)N[C@@H](CN(c4ccccc4)c4ccccc4)c4n[nH]c(=O)o4)ccc3[nH]2)n1 [Verbindung 13, 2-(2-Methylamin-pyrimidin-4-yl)-1H-indol-5-carbonsäure [(S)-2-diphenylamin-1-(5-oxo-4,5-dihydro-[1,3,4]oxadiazol-2-yl)-ethyl]-amid]
- Wirkung auf die Antworten auf noxische Kniegelenksstimulation, comparison with Indomethacin ([1]; comparison with published data of an earlier study): insgesamt stärker ausgeprägt als die Wirkung von Indomethacin
- Entwicklung der spinalen Übererregbarkeit gegenüber den Kontrollen ([1]; etwa 30 µl of 10 µM Lösung on the spinal cord): beinahe vollständig unterdrückt
- Neuronale Antworten vor und während Kniegelenksentzündung, Nicht-noxische Reizung am Kniegelenk, Mittelwert [1, 6]: 8,66 imp/15s
- Neuronale Antworten vor und während Kniegelenksentzündung, Noxische Reizung am Kniegelenk, Mittelwert [1, 6]: 62,3 imp/15s
- Neuronale Antworten vor und während Kniegelenksentzündung, Nicht-noxische Reizung am Kniegelenk, Mittelwert [1, 7]: 2,71 imp/15s
- Neuronale Antworten vor und während Kniegelenksentzündung, Noxische Reizung am Kniegelenk, Mittelwert [1, 7]: 26,9 imp/15s
- Neuronale Antworten vor und während Kniegelenksentzündung, Nicht-noxische Reizung am Kniegelenk, Mittelwert [1, 8]: 11,16 imp/15s
- Neuronale Antworten vor und während Kniegelenksentzündung, Noxische Reizung am Kniegelenk, Mittelwert [1, 8]: 8,5 imp/15s
- Neuronale Antworten vor und während Kniegelenksentzündung, Nicht-noxische Reizung am Kniegelenk, Mittelwert [1, 9]: 39,78 imp/15s
- Neuronale Antworten vor und während Kniegelenksentzündung, Noxische Reizung am Kniegelenk, Mittelwert [1, 9]: 19,5 imp/15s
- Neuronale Antworten vor und während Kniegelenksentzündung, Nicht-noxische Reizung am Kniegelenk, Mittelwert [1, 10]: 0,92 imp/15s
- Neuronale Antworten vor und während Kniegelenksentzündung, Noxische Reizung am Kniegelenk, Mittelwert [1, 10]: 0,8 imp/15s
- thermische Hyperalgesie, comparison with Diclofenac ([2]; comparison data from an earlier study): erheblich stärker reduziert als das NSAID Diclofenac
- thermische Hyperalgesie, duration of effect nach der letzten Substanzgabe ([2]; je 30 mg/kg i.p. (x3)): > 18 Std.
- Veränderung der Pfotenwegziehzeit (%) Mittelwert [2, 11]: -16,6%
- Veränderung der Pfotenwegziehzeit (%) Mittelwert [2, 12]: -31,3%
- Veränderung der Pfotenwegziehzeit (%) Mittelwert [2, 13]: -30,2%
- Veränderung der Pfotenwegziehzeit (%) Mittelwert [2, 14]: -15,3%
- Veränderung der Pfotenwegziehzeit (%) Mittelwert [2, 15]: -16,0%
- Veränderung der Pfotenwegziehzeit (%) Mittelwert [2, 16]: -9,7%
- Veränderung der Pfotenwegziehzeit (%) Mittelwert [2, 17]: 5,0%
- Veränderung der Pfotenwegziehzeit (%) Mittelwert [2, 18]: 3,4%
- Veränderung der Pfotenwegziehzeit (%) Mittelwert [2, 19]: -3,8%
- Veränderung der Pfotenwegziehzeit (%) Mittelwert [2, 20]: 0,0%
- thermische Hyperalgesie, Seitenunterschied in der Pfotenwegziehzeit ([2]; je 30 mg/kg i.p., after the third dose): überhaupt kein Seitenunterschied in der Pfotenwegziehzeit mehr zu finden
- thermische Hyperalgesie compared with Kontrollgruppe ([2]; je 30 mg/kg i.p., from two hours after Zymosan Injektion): geringer ausgeprägt als in der Kontrollgruppe
- mechanische Hyperalgesie ([3]; je 30 mg/kg i.p. (x3)): signifikant reduziert
- mechanische Hyperalgesie, duration of effect nach der letzten Substanzgabe ([3]; je 30 mg/kg i.p. (x3)): ≥ 18 Std.
- mechanische Hyperalgesie, onset of effect nach Zymosan Injektion ([3]; je 30 mg/kg i.p. (x3)): 1 Stunde
- Veränderung der Pfotenwegziehschwelle (%) Mittelwert [3, 11]: -37,4%
- Veränderung der Pfotenwegziehschwelle (%) Mittelwert [3, 12]: -43,1%
- Veränderung der Pfotenwegziehschwelle (%) Mittelwert [3, 13]: -36,0%
- Veränderung der Pfotenwegziehschwelle (%) Mittelwert [3, 14]: -35,1%
- Veränderung der Pfotenwegziehschwelle (%) Mittelwert [3, 15]: -46,7%
- Veränderung der Pfotenwegziehschwelle (%) Mittelwert [3, 16]: -40,6%
- Veränderung der Pfotenwegziehschwelle (%) Mittelwert [3, 17]: -33,1%
- Veränderung der Pfotenwegziehschwelle (%) Mittelwert [3, 18]: -44,7%
- Veränderung der Pfotenwegziehschwelle (%) Mittelwert [3, 19]: -9,7%
- Veränderung der Pfotenwegziehschwelle (%) Mittelwert [3, 20]: 0,0%
- thermische Hyperalgesie, comparison with Paracetamol ([4]; 7-day study, twice daily): stärker als Paracetamol
- Effekte on thermische Hyperalgesie in der hohen Dosierung ([4]; 14-day study, high dose (25 mg/kg)): gleich stark
- minimal effective dose ([4]; 168 h, 7-day study, oral twice daily, read-out: Einzeldosis from which Therapieerfolg signifikant gegenüber der Vehikelgruppe): ≥ 8.3 mg/kg
- Statistischer Unterschied gegenüber Vehikel [4, 21]: nein
- Statistischer Unterschied gegenüber Vehikel [4, 22]: ja
- Statistischer Unterschied gegenüber Vehikel [4, 23]: ja
- Statistischer Unterschied gegenüber Vehikel ([4]; 14 days, 25 mg/kg twice daily): ja
- AUC Mittelwert [Maß für Hyperalgesie] ([4]; 7 days after Zymosan, 2.8 mg/kg oral twice daily): 40.4
- AUC Mittelwert [Maß für Hyperalgesie] ([4]; 7 days after Zymosan, 25 mg/kg oral twice daily): 19.4
- AUC Mittelwert [Maß für Hyperalgesie] ([4]; 7 days after Zymosan, 75 mg/kg oral twice daily): 17.4
- AUC Mittelwert [Maß für Hyperalgesie] ([4]; 14 days after Zymosan, 25 mg/kg twice daily): 47.6
- AUC Mittelwert (Laufradaktivität) ([5]; 2.8 mg/kg oral twice daily): 131.1
- AUC Mittelwert (Laufradaktivität) ([5]; 25 mg/kg oral twice daily): 216.7
- AUC Mittelwert (Laufradaktivität) ([5]; 75 mg/kg oral twice daily): 251.7
- Laufleistung nach Zymosan Injektion gegenüber der Vehikelgruppe ([5]; 7 days, twice daily): dosisabhängige Steigerung der Laufstrecke
- Statistischer Unterschied gegenüber Vehikel [5, 21]: nein
- Statistischer Unterschied gegenüber Vehikel [5, 22]: ja
- Statistischer Unterschied gegenüber Vehikel [5, 23]: ja
